Measurements reported in ChEMBL document CHEMBL4765470 (J Med Chem, 2021).
Starred links: 1 amine or outer side, 2 acyl side, 3 side chain; linkers in the order of their positions; H or OH if unused. Non-standard residues stand in square brackets, D forms with d. Residues, ends and D or L forms follow the SMILES beside them. *: point of attachment. Ala(thiazol-5-yl) = N[C@@H](Cc1cncs1)C(=O)O; γ4hPhe = O=C(CC[C@H](Cc1ccccc1)N[*:1])[*:2]; 1Nal = N[C@@H](Cc1cccc2ccccc12)C(=O)O; 2Nal = N[C@@H](Cc1ccc2ccccc2c1)C(=O)O; 2Thi = N[C@@H](Cc1cccs1)C(=O)O; Cha = N[C@@H](CC1CCCCC1)C(=O)O; Tle = CC(C)(C)[C@H](N)C(=O)O; Nle = CCCC[C@H](N)C(=O)O; Orn = NCCC[C@H](N)C(=O)O; Dab = NCC[C@H](N)C(=O)O; Ac3c = NC1(C(=O)O)CC1; Bn = c1ccc(C*)cc1

Legend:
Apelin receptor [1] = molecular target: T1, Apelin receptor (Homo sapiens, UniProt P35414); assay: Agonist activity at human APJ receptor expressed in HEK293T cells co-expressing PDZ-Rho-Gef-RLucll assessed as induction of Galpha12 effector (PDZ-RhoGEF) to the cell membrane incubated for 5 mins by BRET assay; format: functional, cell-based
T1 sequence (P35414 whole entry): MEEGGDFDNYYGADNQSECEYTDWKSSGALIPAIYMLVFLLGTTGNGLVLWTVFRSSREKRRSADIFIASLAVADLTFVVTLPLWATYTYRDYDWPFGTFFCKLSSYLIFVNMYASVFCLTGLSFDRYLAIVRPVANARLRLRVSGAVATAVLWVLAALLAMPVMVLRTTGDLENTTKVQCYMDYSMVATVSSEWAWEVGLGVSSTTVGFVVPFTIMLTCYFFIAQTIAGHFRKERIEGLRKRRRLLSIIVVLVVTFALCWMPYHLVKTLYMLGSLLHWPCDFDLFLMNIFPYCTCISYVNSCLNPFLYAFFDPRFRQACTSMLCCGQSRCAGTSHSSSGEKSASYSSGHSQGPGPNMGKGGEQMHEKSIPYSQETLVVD

Apelin receptor [2] = molecular target: T1, Apelin receptor; assay: Displacement of [125I] [NIe75, Tyr77]Pyr-apelin-13 from YFP-tagged human APJ receptor expressed in HEK293 cell membranes incubated for 1 hr by gamma counting based Cheng-Prusoff equation analysis
Apelin receptor [3] = molecular target: T1, Apelin receptor; assay: Agonist activity at human APJ receptor expressed in HEK293 cells co-expressing Rlucll-beta-arrestin2 assessed as induction of beta-arrestin2 recruitment to APJ incubated for 30 mins by BRET assay; format: cell-based
Apelin receptor [4] = molecular target: T1, Apelin receptor; assay: Agonist activity at human APJ receptor expressed in HEK293 cells co-expressing Galpha(i1)-RlucII(91) assessed as induction of dissociation of Galpha(i1) from G-beta-gamma subunits incubated for 5 mins by BRET assay; format: cell-based

| Molecule | EC50 (Apelin receptor [1]) [nM] | Ki (Apelin receptor [2]) [nM] | EC50 (Apelin receptor [3]) [nM] | EC50 (Apelin receptor [4]) [nM] |
| --- | --- | --- | --- | --- |
| CCCC[C@H](N)C(=O)N1CCC[C@H]1C(=O)N[C@@H](CC(C)C)C(=O)N[C@@H](Cc1cnc[nH]1)C(=O)N[C@@H](CO)C(=O)N[C@@H](CCCNC(=N)N)C(=O)N[C@H](C(=O)N1CCC[C@H]1C(=O)N[C@@H](CCc1ccccc1)C(=O)N1CCC[C@H]1C(=O)O)C(C)C | 128 | 9.3 | 151 | 4 |
| CCCC[C@H](N)C(=O)N1CCC[C@H]1C(=O)N[C@@](C)(CC(C)C)C(=O)N[C@@H](Cc1cnc[nH]1)C(=O)N[C@@H](CO)C(=O)N[C@@H](CCCNC(=N)N)C(=O)N[C@H](C(=O)N1CCC[C@H]1C(=O)N[C@@H](Cc1ccccc1)C(=O)N1CCC[C@H]1C(=O)O)C(C)C | 74 | 1.1 | 88 | 1.1 |
| CCCC[C@H](N)C(=O)N1CCC[C@H]1C(=O)N[C@@H](CC(C)C)C(=O)N[C@@H](Cc1cnc[nH]1)C(=O)N[C@@H](CO)C(=O)N[C@@H](CCCNC(=N)N)C(=O)N[C@@H](Cc1ccccc1)C(=O)N1CCC[C@H]1C(=O)N[C@@H](Cc1ccccc1)C(=O)N1CCC[C@H]1C(=O)O (H-[Nle]PLHSRFPFP-OH) | 314 | 18 | 533 | 14 |
| CCCC[C@H](N)C(=O)N1CCC[C@H]1C(=O)N[C@@H](CC(C)C)C(=O)N[C@@H](Cc1cnc[nH]1)C(=O)N[C@@H](CO)C(=O)N[C@@H](CCCNC(=N)N)C(=O)N[C@H](C(=O)N1CCC[C@H]1C(=O)N[C@@H](Cc1ccccc1)C(=O)N[C@@H](Cc1ccccc1)C(=O)O)C(C)C (H-[Nle]PLHSRVPFF-OH) | 43 | 4 | 53 | 2.3 |
| CCCC[C@H](N)C(=O)N1CCC[C@H]1C(=O)N[C@@H](CC(C)C)C(=O)N[C@@H](Cc1cnc[nH]1)C(=O)N[C@@H](CO)C(=O)N[C@@H](CCCNC(=N)N)C(=O)N[C@H](C(=O)N1CCC[C@H]1C(=O)N[C@@H](Cc1ccccc1)C(=O)N[C@@H](Cc1ccc(OCc2ccccc2)cc1)C(=O)O)C(C)C (H-[Nle]PLHSRVPFY(Bn)-OH) | 1520 | 19 | 381 | 19 |
| CCCC[C@H](N)C(=O)N1CCC[C@H]1C(=O)N[C@@H](CC(C)C)C(=O)N[C@@H](Cc1cnc[nH]1)C(=O)N[C@@H](CO)C(=O)N[C@@H](CCCNC(=N)N)C(=O)N[C@@H](CC1CCCCC1)C(=O)N1CCC[C@H]1C(=O)N[C@@H](Cc1ccccc1)C(=O)N1CCC[C@H]1C(=O)O (H-[Nle]PLHSR[Cha]PFP-OH) | – | 152 | – | – |
| CCCC[C@H](N)C(=O)N1CCC[C@H]1C(=O)N[C@@H](CC(C)C)C(=O)N[C@@H](Cc1ccc2ccccc2c1)C(=O)N[C@@H](CO)C(=O)N[C@@H](CCCNC(=N)N)C(=O)N[C@H](C(=O)N1CCC[C@H]1C(=O)N[C@@H](Cc1ccccc1)C(=O)N1CCC[C@H]1C(=O)O)C(C)C (H-[Nle]PL[2Nal]SRVPFP-OH) | – | > 10000 | – | – |
| CCCC[C@H](N)C(=O)N1CCC[C@H]1C(=O)N[C@@H](CC(C)C)C(=O)N[C@@H](CC1CCCCC1)C(=O)N[C@@H](CO)C(=O)N[C@@H](CCCNC(=N)N)C(=O)N[C@H](C(=O)N1CCC[C@H]1C(=O)N[C@@H](Cc1ccccc1)C(=O)N1CCC[C@H]1C(=O)O)C(C)C (H-[Nle]PL[Cha]SRVPFP-OH) | – | 474 | – | – |
| CCCC[C@H](N)C(=O)N1CCC[C@H]1C(=O)N[C@@H](CC(C)C)C(=O)N[C@@H](CCCN)C(=O)N[C@@H](CO)C(=O)N[C@@H](CCCNC(=N)N)C(=O)N[C@H](C(=O)N1CCC[C@H]1C(=O)N[C@@H](Cc1ccccc1)C(=O)N1CCC[C@H]1C(=O)O)C(C)C (H-[Nle]PL[Orn]SRVPFP-OH) | – | > 10000 | – | – |
| CCCC[C@H](N)C(=O)N1CCC[C@H]1C(=O)N[C@H](C(=O)N[C@@H](Cc1cnc[nH]1)C(=O)N[C@@H](CO)C(=O)N[C@@H](CCCNC(=N)N)C(=O)N[C@H](C(=O)N1CCC[C@H]1C(=O)N[C@@H](Cc1ccccc1)C(=O)N1CCC[C@H]1C(=O)O)C(C)C)C(C)C (H-[Nle]PVHSRVPFP-OH) | – | 54 | – | – |
| CCCC[C@H](N)C(=O)N1CCC[C@H]1C(=O)NC1(C(=O)N[C@@H](Cc2cnc[nH]2)C(=O)N[C@@H](CO)C(=O)N[C@@H](CCCNC(=N)N)C(=O)N[C@H](C(=O)N2CCC[C@H]2C(=O)N[C@@H](Cc2ccccc2)C(=O)N2CCC[C@H]2C(=O)O)C(C)C)CC1 (H-[Nle]P[Ac3c]HSRVPFP-OH) | – | 278 | – | – |
| H-HSRVPFP-OH | – | > 10000 | – | – |

Further lines, results first:

| EC50 (Apelin receptor [1]) [nM] | Ki (Apelin receptor [2]) [nM] | EC50 (Apelin receptor [3]) [nM] | EC50 (Apelin receptor [4]) [nM] | Molecule |
| --- | --- | --- | --- | --- |
| 224 | 5.1 | 172 | 6.9 | CCCC[C@H](N)C(=O)N1CCC[C@H]1C(=O)N[C@@H](CC(C)C)C(=O)N[C@@H](Cc1cnc[nH]1)C(=O)N[C@@H](CO)C(=O)N[C@@H](CCCNC(=N)N)C(=O)N[C@H](C(=O)N1CCC[C@H]1C(=O)N[C@@H](Cc1ccccc1)C(=O)N1C2CCCCC2C[C@H]1C(=O)O)C(C)C (some centres not stated) |
| 141 | 16 | 370 | 5.8 | CCCC[C@H](N)C(=O)N1CCC[C@H]1C(=O)N[C@H](C(=O)N[C@@H](Cc1cnc[nH]1)C(=O)N[C@@H](CO)C(=O)N[C@@H](CCCNC(=N)N)C(=O)N[C@H](C(=O)N1CCC[C@H]1C(=O)N[C@@H](Cc1ccccc1)C(=O)N1CCC[C@H]1C(=O)O)C(C)C)[C@@H](C)CC (H-[Nle]PIHSRVPFP-OH) |
| 198 | 8.9 | 175 | 5.8 | CCCC[C@H](N)C(=O)N1CCC[C@H]1C(=O)N[C@@H](CC(C)C)C(=O)N[C@@H](Cc1cnc[nH]1)C(=O)N[C@@H](CO)C(=O)N[C@@H](CCCNC(=N)N)C(=O)N[C@H](C(=O)N1CCC[C@H]1C(=O)N[C@H](CCC(=O)O)Cc1ccccc1)C(C)C (H-[Nle]PLHSRVP-γ4hPhe) |
| 525 | 20 | 149 | 4.6 | CCCC[C@H](N)C(=O)N1CCC[C@H]1C(=O)N[C@@H](CC(C)C)C(=O)N[C@@H](Cc1cnc[nH]1)C(=O)N[C@@H](CO)C(=O)N[C@@H](CCCNC(=N)N)C(=O)N[C@H](C(=O)N1CCC[C@H]1C(=O)N[C@@H](Cc1ccccc1)C(=O)N[C@@H](CC(C)C)C(=O)O)C(C)C (H-[Nle]PLHSRVPFL-OH) |
| 30 | 13 | 123 | 4.5 | CCCC[C@H](N)C(=O)N1CCC[C@H]1C(=O)N[C@@H](CC(C)C)C(=O)N[C@@H](Cc1cnc[nH]1)C(=O)N[C@@H](CO)C(=O)N[C@@H](CCCNC(=N)N)C(=O)N[C@H](C(=O)N1CCC[C@H]1C(=O)N[C@@H](Cc1ccccc1)C(=O)N[C@@H](Cc1cccc2ccccc12)C(=O)O)C(C)C (H-[Nle]PLHSRVPF[1Nal]-OH) |
| 37 | 3.9 | 107 | 3.8 | CCCC[C@H](N)C(=O)N1CCC[C@H]1C(=O)N[C@@H](CC(C)C)C(=O)N[C@@H](Cc1cnc[nH]1)C(=O)N[C@@H](CO)C(=O)N[C@@H](CCCNC(=N)N)C(=O)N[C@H](C(=O)N1CCC[C@H]1C(=O)N[C@@H](Cc1ccccc1)C(=O)N[C@@H](Cc1ccc2ccccc2c1)C(=O)O)C(C)C (H-[Nle]PLHSRVPF[2Nal]-OH) |
| – | 174 | – | – | CCCC[C@H](N)C(=O)N1CCC[C@H]1C(=O)N[C@@H](CC(C)C)C(=O)N[C@@H](Cc1cnc[nH]1)C(=O)N[C@@H](CO)C(=O)N[C@@H](CCCNC(=N)N)C(=O)N[C@H](C(=O)N1CCC[C@H]1C(=O)N[C@@H](Cc1ccccc1)C(=O)N1CCC[C@H]1C(=O)O)C(C)(C)C (H-[Nle]PLHSR[Tle]PFP-OH) |
| – | 62 | – | – | CCCC[C@H](N)C(=O)N1CCC[C@H]1C(=O)N[C@@H](CC(C)C)C(=O)N[C@@H](Cc1c[nH]c2ccccc12)C(=O)N[C@@H](CO)C(=O)N[C@@H](CCCNC(=N)N)C(=O)N[C@H](C(=O)N1CCC[C@H]1C(=O)N[C@@H](Cc1ccccc1)C(=O)N1CCC[C@H]1C(=O)O)C(C)C (H-[Nle]PLWSRVPFP-OH) |
| – | > 10000 | – | – | CCCC[C@H](N)C(=O)N1CCC[C@H]1C(=O)N[C@@H](CC(C)C)C(=O)N[C@@H](Cc1cccc2ccccc12)C(=O)N[C@@H](CO)C(=O)N[C@@H](CCCNC(=N)N)C(=O)N[C@H](C(=O)N1CCC[C@H]1C(=O)N[C@@H](Cc1ccccc1)C(=O)N1CCC[C@H]1C(=O)O)C(C)C (H-[Nle]PL[1Nal]SRVPFP-OH) |
| – | 664 | – | – | CCCC[C@H](N)C(=O)N1CCC[C@H]1C(=O)N[C@@H](CC(C)C)C(=O)N[C@@H](Cc1cccs1)C(=O)N[C@@H](CO)C(=O)N[C@@H](CCCNC(=N)N)C(=O)N[C@H](C(=O)N1CCC[C@H]1C(=O)N[C@@H](Cc1ccccc1)C(=O)N1CCC[C@H]1C(=O)O)C(C)C (H-[Nle]PL[2Thi]SRVPFP-OH) |
| – | 71 | – | – | CCCC[C@H](N)C(=O)N1CCC[C@H]1C(=O)N[C@@H](CC(C)C)C(=O)N[C@@H](Cc1cncs1)C(=O)N[C@@H](CO)C(=O)N[C@@H](CCCNC(=N)N)C(=O)N[C@H](C(=O)N1CCC[C@H]1C(=O)N[C@@H](Cc1ccccc1)C(=O)N1CCC[C@H]1C(=O)O)C(C)C (H-[Nle]PL[Ala(thiazol-5-yl)]SRVPFP-OH) |
| – | > 10000 | – | – | CCCC[C@H](N)C(=O)N1CCC[C@H]1C(=O)N[C@@H](CC(C)C)C(=O)N[C@@H](CCN)C(=O)N[C@@H](CO)C(=O)N[C@@H](CCCNC(=N)N)C(=O)N[C@H](C(=O)N1CCC[C@H]1C(=O)N[C@@H](Cc1ccccc1)C(=O)N1CCC[C@H]1C(=O)O)C(C)C (H-[Nle]PL[Dab]SRVPFP-OH) |
